{"source": "patent EP0565897B1", "about": "“Argatroban preparations for ophthalmic use” (priority 1992, dated 1993)", "key": {"dog": {"tested_on": "dog", "assay": "LD50 (acute toxicity), dog", "type": "in vivo", "settings": "Female, i. v.", "excerpt": "(§1) In the following Table 2, the toxicological data of argatroban is shown."}, "[1]": {"assay": "LD50 (acute toxicity), dog", "type": "in vivo", "settings": "in vivo, iv, Male, i. v.", "excerpt": "as §1"}, "[2]": {"assay": "LD50 (acute toxicity), mouse", "settings": "in vivo", "excerpt": "as §1"}, "[3]": {"tested_on": "flare increase in the anterior chamber", "assay": "Anterior chamber flare after argon laser irradiation (flare cell meter)", "type": "in vivo, pigmented rabbits", "settings": "condition B", "excerpt": "(§2) Matured pigmented rabbits (Dutch rabbits of 2 kg body weight) were irradiated with laser at the iris using an argon laser equipment (product of NIDEK). In one group of the rabbits on the eyes, 8 irradiation points at the same interval on a circle line were made under the conditions of coagulation size of 50 micrometer, output of 1.0 Watt and irradiation time of 0.1 second (condition A). In other group of the rabbits, 8 irradiation points similar to those on the eyes were made under the conditions of coagulation size of 200 micrometer, output of 1.0 Watt and irradiation time of 0.2 second (condition B).\nFrom 30 minutes prior to and until 30 minutes after irradiations, 0.1 mg/kg/minute of argatroban was administered intravenously from ear vein. Control group received only laser irradiation. Positive control group received 1000 U/kg of heparin intravenously 30 minutes prior to laser irradiation.\nFor argatroban eye drop, right eyes of the rabbits received 5 mg/ml solution of argatroban, while left eyes were used as a control without application of argatroban.\nFurther, the laser irradiation of condition B was effected and then the anterior chamber flare values were estimated using the flare cell meter at 30 minutes and 60 minutes after the irradiation.\nThe flare cell meter measures turbidity in the anterior chamber as the photon count. […]"}, "[4]": {"tested_on": "fibrin formation in the anterior chamber", "assay": "Fibrin formation by administering self-plasma to the anterior chamber", "type": "in vivo, white rabbits", "settings": "150 microliter plasma and 50 microliter argatroban solution (10 mg/ml) injected to the anterior chamber; 24 hours after the administration", "procedure": "Blood of matured white rabbits (2 kg in body weight) were taken and separated to give plasma. Two hundreds microliter of anterior chamber liquid was taken by conducting centesis into anterior chamber of the same rabbit. Then, 150 microliter of the plasma obained and 50 microliter of argatroban solution (10 mg/ml), 200 microliter in total, were injected to the anterior chamber from the same centesis portion. The control received 150 microliter of plasma and 50 microliter of physiological saline in the same manner at the anterior chamber. The fibrin formation in the anterior chamber 24 hours after the administration was observed and recorded."}, "[5]": {"assay": "LD50 (acute toxicity), rat", "settings": "in vivo", "excerpt": "as §1"}, "[6]": {"tested_on": "fibrin formation in the rabbit anterior chamber", "assay": "Fibrin formation in the anterior chamber caused by laser irradiation (slit lamp microscope)", "type": "in vivo, pigmented rabbits", "settings": "0.1 mg/kg/minute intravenously, 30 minutes after the irradiation", "procedure": "In this example, a model of fibrin formation in the rabbit anterior chamber caused by laser irradiation was used as a measure for testing the action of argatroban. In this model, the seriousness of inflammation and amount of fibrin are determined proportional to the total energy of the laser irradiation. The amount of fibrin can be controled to the desired value by altering total energy of laser irradiation.\nas §2\nFrom 30 minutes prior to and until 30 minutes after irradiations, 0.1 mg/kg/minute of argatroban was administered intravenously from ear vein. Control group received only laser irradiation. Positive control group received 1000 U/kg of heparin intravenously 30 minutes prior to laser irradiation. […]\nThe fibrin formation was recorded photographically using a slit lamp microscope."}}, "data": [{"compound": "CC1CNc2c(cccc2S(=O)(=O)N[C@@H](CCCNC(=N)N)C(=O)N2CC[C@@H](C)C[C@@H]2C(=O)O)C1.O", "note": "(mixture of isomers) [argatroban, (2R,4R)-4-methyl-1-[N^2-((RS)-3-methyl-1,2,3,4-tetrahydro-8-quinolinesulfonyl)-L-arginyl]-2-piperidinecarboxylic acid hydrate]", "values": [{"measurement": "LD50", "setting": "dog", "result": "> 200", "unit": "mg/kg"}, {"measurement": "LD50", "setting": "[1]", "result": "> 200", "unit": "mg/kg"}, {"measurement": "LD50", "setting": "[2]; ip, Female, i. p.", "result": 640, "unit": "mg/kg"}, {"measurement": "LD50", "setting": "[2]; ip, Male, i. p.", "result": 475, "unit": "mg/kg"}, {"measurement": "LD50", "setting": "[2]; iv, Female, i. v.", "result": "> 81", "unit": "mg/kg"}, {"measurement": "LD50", "setting": "[2]; iv, Male, i. v.", "result": "> 81", "unit": "mg/kg"}, {"measurement": "LD50", "setting": "[2]; po, Female, p. o.", "result": "> 15000", "unit": "mg/kg"}, {"measurement": "LD50", "setting": "[2]; po, Male, p. o.", "result": "> 15000", "unit": "mg/kg"}, {"measurement": "LD50", "setting": "[2]; sc, Female, subc.", "result": 3900, "unit": "mg/kg"}, {"measurement": "LD50", "setting": "[2]; sc, Male, subc.", "result": 3750, "unit": "mg/kg"}, {"measurement": "photon count (/msec)", "setting": "[3]; eye drop, solution of 5 mg/ml, 30 minutes after laser irradiation", "result": "287.7 ± 99.2 (n=4) /msec"}, {"measurement": "photon count (/msec)", "setting": "[3]; eye drop, solution of 5 mg/ml, 60 minutes after laser irradiation", "result": "341.2 ± 86.5 (n=4) /msec"}, {"measurement": "photon count (/msec)", "setting": "[3]; intravenous injection at 0.1 mg/kg/min, 30 minutes after laser irradiation", "result": "417.7 ± 159.3 (n=4) /msec"}, {"measurement": "photon count (/msec)", "setting": "[3]; intravenous injection at 0.1 mg/kg/min, 60 minutes after laser irradiation", "result": "356.9 ± 168.3 (n=4) /msec"}, {"measurement": "fibrin formation", "setting": "[4]", "result": "No fibrin formation was observed"}, {"measurement": "LD50", "setting": "[5]; ip, Female, i. p.", "result": 409, "unit": "mg/kg"}, {"measurement": "LD50", "setting": "[5]; ip, Male, i. p.", "result": 320, "unit": "mg/kg"}, {"measurement": "LD50", "setting": "[5]; iv, Female, i. v.", "result": "> 81", "unit": "mg/kg"}, {"measurement": "LD50", "setting": "[5]; iv, Male, i. v.", "result": "> 81", "unit": "mg/kg"}, {"measurement": "LD50", "setting": "[5]; po, Female, p. o.", "result": "> 15000", "unit": "mg/kg"}, {"measurement": "LD50", "setting": "[5]; po, Male, p. o.", "result": "> 15000", "unit": "mg/kg"}, {"measurement": "LD50", "setting": "[5]; sc, Female, subc.", "result": 620, "unit": "mg/kg"}, {"measurement": "LD50", "setting": "[5]; sc, Male, subc.", "result": 700, "unit": "mg/kg"}, {"measurement": "fibrin formation", "setting": "[6]; condition A", "result": "no fibrin formation was also observed"}, {"measurement": "fibrin formation", "setting": "[6]; condition B", "result": "no fibrin formation was also observed"}]}]}
